Reference: patent publication US9856284B2, “Solid forms of a thiophosphoramidate nucleotide prodrug” (Alios BioPharma, Inc., priority 2012, dated 2018)

Test system: subgenomic HCV replicon in Huh-7 cells
Assay: HCV replicon assay
Type: cell-based
Conditions: Huh-7 cells with subgenomic HCV replicon, luciferase (LUC) reporter, 72 hours, 1% DMSO; read-out: EC50 (50% inhibitory concentration) in HCV replicon cells
Description: Huh-7 cells containing the self-replicating, subgenomic HCV replicon with a stable luciferase (LUC) reporter were cultured in Dulbecco's modified Eagle's medium (DMEM) containing 2 mM L-glutamine and supplemented with 10% heat-inactivated fetal bovine serum (FBS), 1% penicillin-streptomyocin, 1% nonessential amino acids, and 0.5 mg/mL G418.
Determination of 50% inhibitory concentration (EC50) of compounds in HCV replicon cells were performed by the following procedure. On the first day, 5,000 HCV replicon cells were plated per well in a 96-well plate. On the following day, test compounds were solubilized in 100% DMSO to 100× the desired final testing concentration. Each compound was then serially diluted (1:3) up to 9 different concentrations. Compounds in 100% DMSO are reduced to 10% DMSO by diluting 1:10 in cell culture media. The compounds were diluted to 10% DMSO with cell culture media, which were used to dose the HCV replicon cells in 96-well format. The final DMSO concentration was 1%. The HCV replicon cells were incubated at 37° C. for 72 hours. At 72 hours, cells were processed when the cells are still subconfluent. Compounds that reduce the LUC signal are determined by Bright-Glo Luciferase Assay (Promega, Madison, Wis.). Percent Inhibition was determined for each compound concentration in relation to the control cells (untreated HCV replicon) to calculate the EC50.

CC(C)OC(=O)[C@H](C)NP(=S)(OC[C@H]1O[C@@H](n2ccc(=O)[nH]c2=O)[C@](C)(O)[C@@H]1O)Oc1ccccc1 (stereo partly drawn) [Compound 1, 2′-C-methyluridine-5′-(O-phenyl-N—(S)-1-(isopropoxycarbonyl)ethyl)thiophosphoramidate]
EC50: < 1000 nM
